Test results: paper PMC8636514, “Therapeutic potential of TRPM8 antagonists in prostate cancer” (Scientific Reports, 2021)

Key:
LNCaP cells [1] = test: DNA synthesis (BrdU incorporation) in LNCaP cells; format: cell-based, human; details: for effect on DNA synthesis stimulated by R1881: 1 nM R1881, compound 1 μM; for inhibitory effect on R1881-stimulated DNA synthesis, compared with 3 and 5: 10 nM R1881, compound 1 μM
Procedure: […] Cells were fixed, permeabilized, washed and the BrdU incorporation was analysed as reported. Nuclei were stained with Hoechst and cells on coverslips were scored by IF microscopy, using a DMLB Leica (Leica) fluorescent microscope, equipped with HCX PL Apo 63 × oil objective. Different fields from each coverslip were analyzed and BrdU incorporation was calculated by the formula: percentage of BrdU-positive cells = (No. of BrdU-positive cells/No. of total cells) × 100. Data in the graphs derive from at least 1000 scored cells for each coverslip. Representative images were captured using DC480 camera (Leica) and acquired using Leica Suite software. They are representative of three different experiments.

cyclin D1 = test: Western blot of cyclin D1 in LNCaP cells; format: cell-based, human; details: for Cyclin D1, fold increase over the basal level: 15 h; for androgen-induced up-regulation of cyclin D1: R1881, compound 1 μM
From the text: (§1) All performed as reported. The mouse monoclonal anti-AR (441; Santa Cruz) antibody was used in Co-Ip or WB approaches. TRPM8 was detected using the rabbit polyclonal anti-TRPM8 (NBP1-97311; Novus Biological). […] The rabbit polyclonal anti-ERK (C-14; Santa Cruz), antibody was used to detect total ERK. FAK and P-Tyr397 FAK were detected using the mouse monoclonal anti-FAK (Clone 77/610077 BD Transduction Laboratories) or anti P-Tyr397 FAK (Clone 14/611722; BD Transduction Laboratories) antibodies, respectively. P-Tyr118 paxillin and total paxillin were detected using the rabbit polyclonal anti-P-Y118 (#2541, Cell Signaling) or the mouse monoclonal anti-paxillin (clone 349; BD Biosciences) antibodies, respectively. […] P-Tyr 416 Src and Src were detected using the rabbit monoclonal anti P-Tyr 416 Src (#6943; Cell Signaling) or the mouse monoclonal anti Src (Calbiochem) antibodies, respectively. ERα and ERβ were detected using the rabbit polyclonal anti-ERα (543; Santa Cruz) or anti-ERβ (Upstate Biotechnology, U.S.A.) antibodies. Cyclin D1, p27 and Cdk4 were stained using the mouse monoclonal anti-cyclin D1 (clone AM29; from Zymed Laboratories Inc.), the rabbit polyclonal anti-p27 (C-19; Santa Cruz) or anti Cdk-4 (c-22; Santa Cruz) antibodies, respectively. The mouse monoclonal anti-tubulin (Sigma-Aldrich) antibody was used to detect tubulin. The ECL system (GE Healthcare) was employed to reveal immune-reactive proteins. Densitometric analysis of WB was performed by using Image J Software (https://imagej.nih.gov/ij).

Cdk4 = test: Western blot of Cdk4 in LNCaP cells; format: cell-based, human; details: 15 h
From the text: as §1

PC3 cells = test: Wound scratch assay in PC3 cells; format: cell-based; details: cycling or quiescent cells, 10 nM R1881, compound 1 µM
Procedure: (§2) In wound scratch analysis, 1.8 × 10^5 cells were seeded in a 24-well plate and made quiescent. Cells were then wounded using 10 µl sterile pipette tips and washed with PBS. They were left un-stimulated or stimulated for the indicated times, in the absence or presence of the selected compounds. To avoid cell proliferation, cytosine arabinoside (Sigma-Aldrich) at 50 μM (final concentration) was included in the cell medium. Different fields were analysed by contrast-phase microscopy, as below described in this section. Migration and invasion assays were done as reported. In migration assay, we used 3 × 10^4 cells in collagen pre-coated Boyden’s chambers with 8 μm polycarbonate membrane (Falcon). The indicated stimuli were added to the upper and the lower chambers. […] Migrating and invading cells were scored by fluorescence microscopy, as below described in this section.
(§3) In wound scratch assay, different fields were analysed using DMIRB inverted microscope (Leica) equipped with N-Plan 10 × objective (Leica), as reported. LNCaP organoids were analysed using the same microscope equipped with C-Plan 40 × or HCX PL Fluotar 63 × objectives (Leica). […] The relative organoid size was calculated using the same software and expressed as a fold increase over the basal organoid size (measured at 3th day). The wound gap was calculated using Image J Software and expressed as % of the decrease in the wound area. […]

DU145 cells = test: Wound scratch assay in DU145 cells; format: cell-based; details: cycling or quiescent cells, 10 nM R1881, compound 1 µM
Procedure: as §2, §3

LNCaP cells [2] = test: Invasion assay in Matrigel, LNCaP cells; format: cell-based, human; details: for androgen-induced invasion: 10 nM R1881, compound 1 μM; for invasion in the absence of hormone: compound 1 μM alone
Procedure: In wound scratch analysis, 1.8 × 10^5 cells were seeded in a 24-well plate and made quiescent. Cells were then wounded using 10 µl sterile pipette tips and washed with PBS. They were left un-stimulated or stimulated for the indicated times, in the absence or presence of the selected compounds. To avoid cell proliferation, cytosine arabinoside (Sigma-Aldrich) at 50 μM (final concentration) was included in the cell medium. Different fields were analysed by contrast-phase microscopy, as below described in this section. Migration and invasion assays were done as reported. In migration assay, we used 3 × 10^4 cells in collagen pre-coated Boyden’s chambers with 8 μm polycarbonate membrane (Falcon). The indicated stimuli were added to the upper and the lower chambers. Cytosine arabinoside (at 50 μM) was included in the cell medium. After 7 h, non-migrating cells from the membrane upper surface were removed using a sterile cotton swab. In invasion assay, we used 5 × 10^4 cells in Boyden’s chambers with 8 μm polycarbonate membrane (Falcon) pre-coated with growth factor reduced- and phenol red-free Matrigel (Corning). The indicated stimuli were added to the upper and the lower chambers. Cytosine arabinoside (at 50 μM) was included in the cell medium. After 24 h, non-invading cells from the membrane upper surface were removed using a sterile cotton swab. In migration and invasion assays, the membranes were fixed for 20 min in 4% paraformaldehyde, stained with Hoechst (Sigma-Aldrich), removed with forceps from the companion plate and mounted. Migrating and invading cells were scored by fluorescence microscopy, as below described in this section.
(§4) In wound scratch assay, different fields were analysed using DMIRB inverted microscope (Leica) equipped with N-Plan 10 × objective (Leica), as reported. LNCaP organoids were analysed using the same microscope equipped with C-Plan 40 × or HCX PL Fluotar 63 × objectives (Leica). Images were captured using a DFC 450C camera (Leica) and acquired using the Application Suite Software (Leica). They are representative of three different experiments. The relative organoid size was calculated using the same software and expressed as a fold increase over the basal organoid size (measured at 3th day). The wound gap was calculated using Image J Software and expressed as % of the decrease in the wound area. Migrating or invading cells from at least 30 fields/each membrane were scored, using a DMLB (Leica) fluorescent microscope, equipped with HCPL Fluotar 20 × objective.

DU-CaP cells [3] = test: Transmigration assay, DU-CaP cells; format: cell-based, human; details: 10 nM R1881, compound 1 μM; compared with LNCaP
Procedure: as §2, §3

DU-CaP cells [4] = test: Invasion assay, DU-CaP cells; format: cell-based, human; details: 10 nM R1881, compound 1 μM; compared with LNCaP
Procedure: as §2, §3

LNCaP cell spheroids = test: 3D culture in ECM, LNCaP cell spheroid size; format: cell-based, human; details: for androgen-induced increase of spheroid size / spheroid size in the absence of hormone: 15 days; for spheroid size in the absence of hormone: compound 1 μM alone
Procedure: LNCaP cell spheroids were generated as reported. Briefly, 2 × 10^4 LNCaP cells were mixed with 200 μL of phenol-red free growth factor-reduced Matrigel and 50 μL of organoid plating medium in each well. The mixture was pipetted in 24-well plate and allowed to solidify for 45 min at 37 °C, before the addition of 400 μL organoid plating-medium, which was made using phenol red-free DMEM/F12 medium, containing 7% CSS, penicillin (100 U/mL), streptomycin (100 U/mL), diluted GlutaMAX 100X (Gibco), 10 mM Hepes, B27 supplement (50 × stock solution; Thermofisher, Waltham, Massachusetts, USA), […] nicotinamide (Sigma-Aldrich), […] N-acetylcysteine (Sigma-Aldrich) and 10 μM Y-27632 (Millipore, Burlington, MA, USA). After 3 days, the organoid-plating medium was replaced with a similar medium in the absence of N-acetylcysteine and Y-27632. At the 3rd day, spheroids/organoids were untreated or treated with the indicated compounds. The medium was changed every 3 days and fields were analyzed by phase-contrast microscopy.
as §4

ERK, RSK = test: Western blot of ERK and RSK activation in LNCaP cells; format: cell-based, human; details: compound 1 μM; for androgen-triggered ERK and RSK activation: 10 nM R1881, 10 min; for ERK and RSK phosphorylation/activation when used alone: no R1881
From the text: as §1

[5] = 1 nM R1881 + compound 1 μM, Fig 2e-f
[6] = 10 nM R1881 + compound 1 μM, Fig 2d

Row | SMILES | effect on DNA synthesis stimulated by R1881 (LNCaP cells [1]) | inhibitory effect on R1881-stimulated DNA synthesis, compared with 3 and 5 (LNCaP cells [1]) | Cyclin D1, fold increase over the basal level (cyclin D1; [5]) | androgen-induced up-regulation of cyclin D1 (cyclin D1) | Cdk4, fold increase over the basal level (Cdk4; [5]) | wound closure (PC3 cells) | wound closure (DU145 cells) | androgen-induced invasion (LNCaP cells [2]) | invasion in the absence of hormone (LNCaP cells [2]) | androgen-induced migration (DU-CaP cells [3]) | androgen-induced invasion (DU-CaP cells [4]) | androgen-induced increase of spheroid size (LNCaP cell spheroids; 1 nM R1881, compound 1 µM) | androgen-induced increase of spheroid size (LNCaP cell spheroids; 10 nM R1881, compound 1 μM) | spheroid size in the absence of hormone (LNCaP cell spheroids) | androgen-triggered ERK and RSK activation (ERK, RSK) | ERK and RSK phosphorylation/activation when used alone (ERK, RSK) | also measured
1 | c1ccc(COc2ccc3[nH]cc(CCNCc4ccc(Oc5ccccc5)cc4)c3c2)cc1 [Compound 4] | reverted | stronger | 0,9 fold | significantly impair | 1 fold | did not modify | did not modify | reversed | negligible effect | Superimposable results | Superimposable results | reverted | abolished | leaving unaffected | inhibited | leaving unaffected | –
2 | COC(=O)[C@H](Cc1c[nH]c2ccccc12)N(Cc1ccccc1)Cc1ccccc1 [Compound 6] | reverted | stronger | 0,9 fold | significantly impair | 1,1 fold | did not modify | did not modify | reversed | negligible effect | Superimposable results | Superimposable results | reverted | abolished | leaving unaffected | inhibited | leaving unaffected | Cyclin D1, fold increase over the basal level (cyclin D1; [6]): 1,2 fold; Cdk4, fold increase over the basal level (Cdk4; [6]): 1,1 fold
3 | C[C@]1(O)CC[C@H]2[C@@H]3CCC4=CC(=O)CCC4=C3C=C[C@@]21C [Compound R1881, reference compound] | – | – | – | – | – | – | – | – | – | – | – | – | – | – | – | – | increase of the DNA synthesis (LNCaP cells [1]; 1 nM R1881 alone): ~2 folds; increase in BrdU incorporation (LNCaP cells [1]; 10 nM R1881 alone): ~3,5 folds; Cyclin D1, fold increase over the basal level (cyclin D1; 1 nM R1881 alone, Fig 2e): 1,5 fold; Cyclin D1, fold increase over the basal level (cyclin D1; 1 nM R1881 alone, Fig 2f): 1,7 fold; Cyclin D1, fold increase over the basal level (cyclin D1; 10 nM R1881 alone, Fig 2d): 2,7 fold; Cdk4, fold increase over the basal level (Cdk4; 1 nM R1881 alone, Fig 2e): 1 fold; Cdk4, fold increase over the basal level (Cdk4; 1 nM R1881 alone, Fig 2f): 1,1 fold; Cdk4, fold increase over the basal level (Cdk4; 10 nM R1881 alone, Fig 2d): 1 fold; increase in number of invading cells in Matrigel (LNCaP cells [2]; 10 nM R1881 alone): 1,6 folds; response on spheroid size (LNCaP cell spheroids; 1 nM R1881 alone): only a weak response
